Experiment [1] concerns the target T1, DNA repair and recombination protein RAD54-like (Homo sapiens, UniProt Q92698).
T1 sequence (Q92698 whole entry): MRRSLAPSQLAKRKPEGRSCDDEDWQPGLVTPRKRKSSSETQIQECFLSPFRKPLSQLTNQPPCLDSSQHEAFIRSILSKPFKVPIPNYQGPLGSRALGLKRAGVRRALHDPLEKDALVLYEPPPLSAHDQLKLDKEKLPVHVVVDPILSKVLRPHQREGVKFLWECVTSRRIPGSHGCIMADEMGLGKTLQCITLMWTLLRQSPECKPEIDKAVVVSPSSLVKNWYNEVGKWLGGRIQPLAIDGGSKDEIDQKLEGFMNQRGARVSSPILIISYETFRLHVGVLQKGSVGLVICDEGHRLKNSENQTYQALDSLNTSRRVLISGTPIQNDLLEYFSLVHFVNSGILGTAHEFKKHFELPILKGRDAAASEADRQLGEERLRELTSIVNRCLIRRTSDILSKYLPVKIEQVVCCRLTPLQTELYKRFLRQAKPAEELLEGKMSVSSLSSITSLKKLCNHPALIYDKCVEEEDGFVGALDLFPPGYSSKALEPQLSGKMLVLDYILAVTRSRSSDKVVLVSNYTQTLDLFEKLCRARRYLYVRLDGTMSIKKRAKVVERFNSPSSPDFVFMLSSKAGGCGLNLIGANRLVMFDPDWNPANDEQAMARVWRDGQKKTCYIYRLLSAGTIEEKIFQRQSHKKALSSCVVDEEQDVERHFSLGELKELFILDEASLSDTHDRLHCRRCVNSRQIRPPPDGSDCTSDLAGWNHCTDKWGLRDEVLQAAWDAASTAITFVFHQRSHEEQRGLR
Nature of the experiment: inhibitors of human RAD54 branch migration, confirmation, biochemical, fluorescence, cherry-picked samples, dose series (AID 651657). The format is functional.

Experiment [2] is described as follows: MDA-MB-231 cell growth inhibition, dose response, cytotoxicity control for RAD54 inhibitor project, CellTiter-Glo luminescence, cherry-pick (AID 651692). The format is functional, cell-based.
Experiment [3] has as its target T2, DNA repair protein RAD52 homolog (Homo sapiens, UniProt P43351).
T2 sequence (P43351 whole entry): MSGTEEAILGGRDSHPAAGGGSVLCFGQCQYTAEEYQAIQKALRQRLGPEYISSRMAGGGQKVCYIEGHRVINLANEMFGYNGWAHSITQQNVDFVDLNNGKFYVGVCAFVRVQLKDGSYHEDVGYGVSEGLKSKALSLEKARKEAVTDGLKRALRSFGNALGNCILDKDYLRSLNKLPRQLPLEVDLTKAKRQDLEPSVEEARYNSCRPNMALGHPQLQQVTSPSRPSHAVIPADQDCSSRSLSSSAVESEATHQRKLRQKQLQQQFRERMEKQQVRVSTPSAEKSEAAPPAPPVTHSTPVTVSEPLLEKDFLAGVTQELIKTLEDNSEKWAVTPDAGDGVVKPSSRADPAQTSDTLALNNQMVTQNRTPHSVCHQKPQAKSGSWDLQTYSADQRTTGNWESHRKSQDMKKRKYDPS
The format is functional, biochemical.

The target in experiment [4] is DNA dC->dU-editing enzyme APOBEC-3G (Homo sapiens, UniProt Q9HC16). The format is functional.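 Further: Dose-response counterscreen measuring inhibition of APOBEC3G DNA deaminase activity, run while confirming APOBEC3A inhibitors.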
DNA dC->dU-editing enzyme APOBEC-3G, sequence (Q9HC16 whole entry): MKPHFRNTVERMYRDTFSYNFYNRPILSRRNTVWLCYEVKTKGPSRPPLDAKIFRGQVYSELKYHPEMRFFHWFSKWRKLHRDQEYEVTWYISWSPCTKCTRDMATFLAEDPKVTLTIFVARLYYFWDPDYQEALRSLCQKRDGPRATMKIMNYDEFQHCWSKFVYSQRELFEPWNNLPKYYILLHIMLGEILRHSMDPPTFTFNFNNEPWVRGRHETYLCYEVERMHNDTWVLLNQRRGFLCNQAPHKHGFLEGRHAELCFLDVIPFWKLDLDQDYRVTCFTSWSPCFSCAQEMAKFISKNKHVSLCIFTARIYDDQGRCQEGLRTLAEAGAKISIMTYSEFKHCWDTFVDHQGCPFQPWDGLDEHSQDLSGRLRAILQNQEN
The target in experiment [5] is DNA dC->dU-editing enzyme APOBEC-3A (Homo sapiens, UniProt P31941). Nature of the experiment: Dose Response confirmation of small molecule APOBEC3A DNA Deaminase Inhibitors via a fluorescence-based single-stranded DNA deaminase assay. [Related pubchem assays (depositor defined):AID493011, AID493024]. The format is functional.
DNA dC->dU-editing enzyme APOBEC-3A, sequence (P31941 whole entry): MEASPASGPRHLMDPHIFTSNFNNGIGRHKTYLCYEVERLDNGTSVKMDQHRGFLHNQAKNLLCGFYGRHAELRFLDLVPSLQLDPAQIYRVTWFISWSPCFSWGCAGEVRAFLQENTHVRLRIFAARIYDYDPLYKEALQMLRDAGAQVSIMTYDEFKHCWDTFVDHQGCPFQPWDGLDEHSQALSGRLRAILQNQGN
The target in experiment [6] is T3, Beta-2 adrenergic receptor (Homo sapiens, UniProt P07550). In words: beta2AR agonists driving receptor internalization, dose response, cell-based, FAP fluorogen, flow cytometry, cherry pick 1 (AID 588763). The format is functional. Background: Flow cytometry measures light scatter and fluorescence of single cells or particles in a stream.
T3 sequence (P07550 whole entry): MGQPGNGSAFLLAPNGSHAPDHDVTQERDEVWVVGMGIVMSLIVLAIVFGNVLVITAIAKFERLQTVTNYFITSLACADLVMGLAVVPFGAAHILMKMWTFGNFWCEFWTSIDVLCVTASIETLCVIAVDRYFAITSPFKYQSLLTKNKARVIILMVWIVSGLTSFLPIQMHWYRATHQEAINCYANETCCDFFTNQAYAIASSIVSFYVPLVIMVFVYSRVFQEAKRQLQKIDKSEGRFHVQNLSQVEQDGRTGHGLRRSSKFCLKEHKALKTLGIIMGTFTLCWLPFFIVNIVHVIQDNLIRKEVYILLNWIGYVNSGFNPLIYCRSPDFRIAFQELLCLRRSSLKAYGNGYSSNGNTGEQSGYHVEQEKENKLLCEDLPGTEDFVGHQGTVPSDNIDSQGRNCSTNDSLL
For experiment [7], the target named is T3, Beta-2 adrenergic receptor. Nature of the experiment: Dose response for HTS for Beta-2AR agonists via FAP method from Powderset3. The format is functional.
The target in experiment [8] is ADP-ribosylation factor GTPase-activating protein 1 (Rattus norvegicus, UniProt Q62848). In words: Fluorescence polarization-based biochemical high throughput dose response screening assay to identify inhibitors of ADP-ribosylation factor GTPase activating protein 1 (ARFGAP1). The format is functional. (In general: Fluorescence polarisation rises when a labelled molecule tumbles more slowly, as on binding a larger partner.)
ADP-ribosylation factor GTPase-activating protein 1, sequence (Q62848 whole entry): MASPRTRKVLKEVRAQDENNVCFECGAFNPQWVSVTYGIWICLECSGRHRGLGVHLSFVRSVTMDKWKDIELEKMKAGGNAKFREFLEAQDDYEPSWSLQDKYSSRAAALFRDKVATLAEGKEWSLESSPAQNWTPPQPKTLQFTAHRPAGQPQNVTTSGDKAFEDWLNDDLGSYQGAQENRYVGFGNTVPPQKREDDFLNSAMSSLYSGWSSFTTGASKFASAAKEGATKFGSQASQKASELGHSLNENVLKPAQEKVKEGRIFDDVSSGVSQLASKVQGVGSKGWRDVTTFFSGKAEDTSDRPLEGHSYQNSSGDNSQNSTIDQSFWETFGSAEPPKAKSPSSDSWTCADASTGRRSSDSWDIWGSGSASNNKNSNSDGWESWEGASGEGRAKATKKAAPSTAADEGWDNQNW

A short description of experiment [9]: cells. The format is functional, cell-based.
Experiment [10] addresses T4, Trace amine-associated receptor 1 (Homo sapiens, UniProt Q96RJ0).
T4 sequence (Q96RJ0 whole entry): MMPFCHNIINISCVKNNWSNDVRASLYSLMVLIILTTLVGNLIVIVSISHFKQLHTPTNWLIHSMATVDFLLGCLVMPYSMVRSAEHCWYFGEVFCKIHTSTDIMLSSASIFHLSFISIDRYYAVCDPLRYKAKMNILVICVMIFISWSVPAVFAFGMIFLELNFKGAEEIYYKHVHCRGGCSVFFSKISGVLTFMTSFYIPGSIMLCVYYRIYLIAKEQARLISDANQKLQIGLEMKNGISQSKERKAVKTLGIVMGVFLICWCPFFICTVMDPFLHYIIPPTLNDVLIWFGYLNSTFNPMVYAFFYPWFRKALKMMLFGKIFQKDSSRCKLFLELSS
In words: Fluorescence-based cell-based high throughput dose response assay to identify agonists of the human trace amine associated receptor 1 (TAAR1). The format is functional.

Experiment [11] in a line: cells. The format is functional, cell-based. The source holds these as a separate data set.
For experiment [12], the target named is T4, Trace amine-associated receptor 1. In words: Counterscreen for agonists of the human trace amine associated receptor 1 (hTAAR1): Fluorescence-based cell-based high throughput dose response assay to identify hTAAR1 agonist that also desensitize TAAR1 receptor response. The format is functional.
Experiment [13] can be described thus: inhibitors of intracellular T. cruzi replication, confirmation, NIH3T3 host cells, beta-gal luminescence (AID 2044).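 Further: intracellular parasites grown in NIH/3T3 mouse fibroblasts as host cells; luminescent beta-galactosidase reporter signal from transgenic T. cruzi replicating inside host cells; inhibitors lower the luminescence signal.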 The format is functional, cell-based.
Experiment [14] addresses Fructose-bisphosphate aldolase (Mycobacterium tuberculosis, UniProt P9WQA3). In words: Fluorescence-based biochemical high throughput dose response assay for inhibitors of the fructose-bisphosphate aldolase (FBA) of M. tuberculosis. The format is functional.
Experiment [15] is described as follows: cytotoxicity toward NIH3T3 fibroblasts, dose response, counter-screen, cell-based, ATP luminescence, mouse fibroblasts (AID 2010).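 Further: cells exposed to compound for about 90 hours before reading.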 The format is functional. For orientation: A counterscreen serves to expose hits that act by an unwanted route or on another target.

The source made the active and inactive calls. A value given as a limit tells only on which side of the number the result lay.

Fructose-bisphosphate aldolase, sequence (P9WQA3 whole entry): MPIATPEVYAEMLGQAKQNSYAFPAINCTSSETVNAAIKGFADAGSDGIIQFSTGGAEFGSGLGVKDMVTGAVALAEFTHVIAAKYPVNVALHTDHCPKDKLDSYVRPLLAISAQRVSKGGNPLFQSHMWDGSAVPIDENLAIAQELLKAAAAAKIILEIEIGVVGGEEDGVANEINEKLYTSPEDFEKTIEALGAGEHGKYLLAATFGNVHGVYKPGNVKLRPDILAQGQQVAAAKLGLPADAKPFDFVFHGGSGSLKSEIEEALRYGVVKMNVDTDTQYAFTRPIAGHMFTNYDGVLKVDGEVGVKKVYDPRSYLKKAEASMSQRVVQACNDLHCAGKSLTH

As a reminder, the AC50 is the concentration at which the activity in the assay is half-maximal. In general, IC50 refers to the concentration needed to halve the response being measured. `CCN1CCN(c2ccc(NC(=O)c3cc4ccccc4cc3OC)cc2C)CC1`: the AC50 in [1] was 52.2 µM (active); in [2] it was 36.5 µM (active); in experiment [3], 18.2 µM (active). In addition, the IC50 is 6.67 µM (active) in experiment [4] and 4.24 µM (active) in [5].
What is called EC50 is the concentration needed to bring the measured effect to its halfway point. `CC1(C)Cc2c(c(N3CCCC3)nc3sc4c(N5CCN(CCO)CC5)ncnc4c23)CO1`: the values for the EC50 in experiment [6] and in experiment [7] were 8.76 µM (active) and 1.71 µM (active), respectively.
As for `CCN1CCN(C(=O)Cn2ncc3c4cc(C)ccc4nc-3c2O)CC1`, in [8], the IC50 is 82.7 µM (inactive).
In the case of `Fc1ccccc1N1CCN(C(c2cccs2)c2nnnn2CCc2ccccc2)CC1` (stereo not given), the EC50 in “cells [9]” was > 29.9 µM (inactive); in experiment [10], 4.06 µM (active). In addition, the IC50 is > 29.9 µM (inactive) in “cells [11]” and 6.73 µM (active) in experiment [12].
Consider `Nc1nc2n(n1)C(c1cccs1)CC(c1ccc(Br)cc1)N2` (stereo not given), for which the EC50 was 4.37 µM (active) in experiment [13] and > 60 µM (not active) in experiment [15]. The IC50 in [14] is 4.61 µM (active).

The values above are taken from ChEMBL document CHEMBL1201862, “PubChem BioAssay data set” (2004).
